Data as given in US9403801B2 (Calitor Sciences, LLC, priority 2014, dated 2016).
Values belong to the compound of their own block, whether it stands above or below them.

What was measured:
JAK1 (h) = JAK1 (h) (Homo sapiens (Human), UniProt P23458); experiment: JAK1 kinase assay (33P-ATP filter binding, Millipore); format: biochemical
Description: Kinase assays can be performed by measurement of incorporation of γ-^33P ATP into immobilized myelin basic protein (MBP). High binding white 384 well plates (Greiner) are coated with MBP (Sigma #M−1891) by incubation of 60 μL/well of 20 μg/mL MBP in Tris-buffered saline (TBS; 50 mM Tris pH 8.0, 138 mM NaCl, 2.7 mM KCl) for 24 h at 4° C. Plates are washed 3× with 100 μL TBS. Kinase reactions are carried out in a total volume of 34 μL in kinase buffer (5 mM Hepes pH 7.6, 15 mM NaCl, 0.01% bovine gamma globulin (Sigma #I-5506), 10 mM MgCl2, 1 mM DTT, 0.02% TritonX-100). Compound dilutions are performed in DMSO and added to assay wells to a final DMSO concentration of 1%. Each data point is measured in duplicate, and at least two duplicate assays are performed for each individual compound determination. Enzyme is added to final concentrations of 10 nM or 20 nM, for example. A mixture of unlabeled ATP and γ-^33P ATP is added to start the reaction (2×10^6 cpm of γ-^33P ATP per well (3000 Ci/mmole) and 10 μM unlabeled ATP, typically. The reactions are carried out for 1 h at room temperature with shaking. Plates are washed 7× with TBS, followed by the addition of 50 μL/well scintillation fluid (Wallac). Plates are read using a Wallac Trilux counter. This is only one format of such assays; various other formats are possible, as known to one skilled in the art.
The above assay procedure can be used to determine the IC50 for inhibition and/or the inhibition constant, Ki. The IC50 is defined as the concentration of compound required to reduce the enzyme activity by 50% under the condition of the assay. The IC50 value is estimated by preparing a 10 point curve using a 1/2 log dilution series (for example, a typical curve may be prepared using the following compound concentrations: 3 μM, 1 μM, 0.3 μM, 0.1 μM, 0.03 μM, 0.01 μM, 0.003 μM, 0.001 μM, 0.0003 μM and 0 μM).
The kinase assays described herein were performed at Millipore UK Ltd, Dundee Technology Park, Dundee DD2 1SW, UK.

[1] = Pharmacokinetics after intravenous and oral administration in rats; format: in vivo; details: for Clearance (CL) after iv dosing / AUC(0-t) / half-life / Vd: dose 1 mg/kg (Ex. 27: 0.72 mg/kg), iv dosing; for F: oral bioavailability; for AUC(0-t) / half-life / Vd: rat, plasma; for Vd: read-out: Vss
Description: The LC/MS/MS system used in the analysis consists of an Agilent 1200 Series vacuum degasser, binary pump, well-plate autosampler, thermostatted column compartment, the Agilent G6430 Triple Quadrupole Mass Spectrometer with an electrosprayionization (ESI) source. Quantitative analysis was carried out using MRM mode. The parameters for MRM transitions are in the Table A.
An Agilent XDB-C18, 2.1×30 mm, 3.5 μM column was used for the analysis. 5 μL of the samples were injected. Analysis condition: The mobile phase was 0.1% formic acid in water (A) and 0.1% formic acid in methanol (B). The flow rate was 0.4 mL/min. And the gradient of Mobile phase was in the Table B.
Alternatively, an Agilent 6330 series LC/MS/MS spectrometer equipped with G1312A binary pumps, a G1367A autosampler and a G1314C UV detector were used in the analysis. An ESI source was used on the LC/MS/MS spectrometer. The analysis was done in positive ion mode as appropriate and the MRM transition for each analyte was optimized using standard solution. A Capcell MP-C18 100×4.6 mm I.D., […] column (Phenomenex, Torrance, Calif., USA) was used during the analysis. The mobile phase was 5 mM ammonia acetate, 0.1% MeOH in water (A): 5 mM ammonia acetate, 0.1% MeOH in acetonitrile (B) (70:30, v/v). The flow rate was 0.6 mL/min. Column was maintained at ambient temperature. 20 μL of the samples were injected.
The compounds disclosed herein are assessed in pharmacokinetic studies in mice, rats, dogs or monkeys. The compounds are administered as a water solution, 2% HPMC+1% TWEEN®80 in water solution, 5% DMSO+5% solution in saline, 4% MC suspension or capsule. For the intravenous administration, the animals are generally given at 1 or 2 mg/kg dose. For the oral (p.o.) dosing, mice and rats are generally given 5 or 10 mg/kg dose, and dogs and monkeys are generally given 10 mg/kg dose. The blood samples (0.3 mL) are drawn at 0.25, 0.5, 1.0, 2.0, 3.0, 4.0, 6.0, 8.0, 12 and 24 h time points or 0.083, 0.25, 0.5, 1.0, 2.0, 4.0, 6.0, 8.0 and 24 h time points and centrifuged at 3,000 or 4000 rpm for 2 to 10 min. The plasma solutions are collected, and stored at −20° C. or −70° C. until analyzed by LC/MS/MS as described above.

[2] = Compound stability in human liver microsomes; format: in vitro ADME; details: for half-life at 5 μM: compound 5 μM, NADPH 1.0 mM, 37° C.; for CLint scaled at 5 μM: in vivo CLint extrapolated
Description: (§1) Human or rat liver microsomes incubations were conducted in duplicate in polypropylene tubes. The typical incubation mixtures consisted of human or rat liver microsomes (0.5 mg protein/mL), compounds of interest (5 μM) and NADPH (1.0 mM) in a total volume of 200 μL potassium phosphate buffer (PBS, 100 mM, pH 7.4). Compounds were dissolved in DMSO and diluted with PBS such that the final concentration of DMSO was 0.05%. The enzymatic reactions were commenced with the addition of protein after a 3-min preincubation and incubated in a water bath open to the air at 37° C. Reactions were terminated at various time points (0, 5, 10, 15, 30, 60 min) by adding equal volume of ice-cold acetonitrile. The samples were stored at −80° C. until LC/MS/MS assays.
(§2) The concentrations of compounds in the incubation mixtures of human or rat liver microsomes were determined by a LC/MS/MS method. The ranges of the linearity in the concentration range were determined for each tested compounds.
(§3) A parallel incubation was performed using denatured microsomes as the negative control, and reactions were terminated at various time points (0, 15, 60 min) after incubation at 37° C.
(§4) Dextromethorphan (70 μM) was selected as the positive control, and reactions were terminated at various time points (0, 5, 10, 15, 30, 60 min) after incubation at 37° C. Both positive and negative control samples were included in each assay to ensure the integrity of the microsomal incubation system.
(§5) The concentrations of compounds in human or rat liver microsome incubations were plotted as a percentage of the relevant zero time point control for each reaction. The in vivo CLint were extrapolated (ref.: Naritomi, Y.; Terashita, S.; Kimura, S.; Suzuki, A.; Kagayama, A.; and Sugiyama, Y.; Prediction of human hepatic clearance from in vivo animal experiments and in vitro metabolic studies with liver microsomes from animals and humans. Drug Metab. Dispos., 2001, 29: 1316-1324).

[3] = Compound stability in rat liver microsomes; format: in vitro ADME; details: for half-life at 5 μM: compound 5 μM, NADPH 1.0 mM, 37° C.; for CLint scaled at 5 μM: in vivo CLint extrapolated
Description: as §1, §2, §3, §4, §5

[4] = human, liver microsomes, pH 7.4, Human liver microsomes 0.5 mg protein/mL
[5] = human, liver microsomes, pH 7.4, Human liver microsomes
[6] = rat, liver microsomes, pH 7.4, Rat liver microsomes 0.5 mg protein/mL
[7] = rat, liver microsomes, pH 7.4, Rat liver microsomes
[8] = pH 7.4, Human liver microsomes 0.5 mg protein/mL
[9] = pH 7.4, Rat liver microsomes 0.5 mg protein/mL

Chain of JAK1 (h) (P23458 whole entry): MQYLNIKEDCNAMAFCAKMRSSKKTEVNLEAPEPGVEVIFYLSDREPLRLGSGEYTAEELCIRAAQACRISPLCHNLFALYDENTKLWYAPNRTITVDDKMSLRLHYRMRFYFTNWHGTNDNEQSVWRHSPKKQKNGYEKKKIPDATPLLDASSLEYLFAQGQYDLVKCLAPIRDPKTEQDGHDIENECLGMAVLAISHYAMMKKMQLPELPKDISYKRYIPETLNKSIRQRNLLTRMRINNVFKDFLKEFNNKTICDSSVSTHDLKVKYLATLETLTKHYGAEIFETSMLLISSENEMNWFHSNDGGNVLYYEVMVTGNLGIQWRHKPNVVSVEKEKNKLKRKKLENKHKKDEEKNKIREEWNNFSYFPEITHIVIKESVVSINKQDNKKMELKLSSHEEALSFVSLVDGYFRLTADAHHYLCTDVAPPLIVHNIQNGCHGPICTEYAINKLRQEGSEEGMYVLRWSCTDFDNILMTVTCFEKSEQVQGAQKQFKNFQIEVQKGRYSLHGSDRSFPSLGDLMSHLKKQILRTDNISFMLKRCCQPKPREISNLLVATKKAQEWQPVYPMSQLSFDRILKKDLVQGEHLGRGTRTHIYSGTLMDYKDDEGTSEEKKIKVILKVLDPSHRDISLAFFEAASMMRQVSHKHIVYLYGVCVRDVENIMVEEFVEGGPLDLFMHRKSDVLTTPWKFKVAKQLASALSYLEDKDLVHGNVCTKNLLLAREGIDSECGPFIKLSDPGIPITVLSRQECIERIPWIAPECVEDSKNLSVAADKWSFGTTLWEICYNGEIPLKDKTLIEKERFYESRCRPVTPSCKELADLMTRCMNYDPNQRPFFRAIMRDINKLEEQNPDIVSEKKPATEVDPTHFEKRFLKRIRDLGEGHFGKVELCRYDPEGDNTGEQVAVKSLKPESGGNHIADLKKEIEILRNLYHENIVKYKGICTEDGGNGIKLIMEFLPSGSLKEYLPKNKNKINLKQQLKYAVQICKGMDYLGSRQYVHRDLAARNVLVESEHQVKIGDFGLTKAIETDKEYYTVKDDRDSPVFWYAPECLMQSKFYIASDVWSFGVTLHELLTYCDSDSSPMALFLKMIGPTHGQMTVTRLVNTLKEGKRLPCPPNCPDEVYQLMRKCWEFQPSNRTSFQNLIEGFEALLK

SMILES: N#CCC(=O)N1CCC2(CCC(Nc3nc(Nc4cnn(CCO)c4)ncc3Cl)CC2)CC1 [Ex. 50, 3-(9-((5-chloro-2-((1-(2-hydroxyethyl)-1H-pyrazol-4-yl)amino)pyrimidin-4-yl)amino)-3-azaspiro[5.5]undecan-3-yl)-3-oxopropanenitrile]
IC50 (JAK1 (h)): 14 nM
Clearance (CL) after iv dosing [1]: 43.2 mL/min/kg
F [1]: 17.3%
AUC(0-t) [1]: 384 ng·h/mL
half-life [1]: 59.4 min
Vd [1]: 1.93 L/kg
half-life at 5 μM [2, 4]: 537 min
CLint scaled at 5 μM [2, 5]: 3.24 mL/min/kg
half-life at 5 μM [3, 6]: 308 min
CLint scaled at 5 μM [3, 7]: 8.07 mL/min/kg

SMILES: N#CCC(=O)N1CCC2(CCC(Nc3nc(Nc4cnn(CC5CC5)c4)ncc3Cl)CC2)CC1 [Ex. 48, 3-(9-((5-chloro-2-((1-(cyclopropylmethyl)-1H-pyrazol-4-yl)amino)pyrimidin-4-yl)amino)-3-azaspiro[5.5]undecan-3-yl)-3-oxopropanenitrile]
IC50 (JAK1 (h)): 0.4 nM
Clearance (CL) after iv dosing [1]: 66.2 mL/min/kg
F [1]: 13.6%
AUC(0-t) [1]: 252 ng·h/mL
half-life [1]: 43.8 min
Vd [1]: 3.41 L/kg
half-life at 5 μM [2, 4]: 47.6 min
CLint scaled at 5 μM [2, 5]: 36.5 mL/min/kg
half-life at 5 μM [3, 6]: 24.3 min
CLint scaled at 5 μM [3, 7]: 102 mL/min/kg

SMILES: N#CCC(=O)N1CC2CC(Nc3nc(Nc4cnn(CC5CC5)c4)ncc3Cl)CC2C1 (centres unmarked) [Ex. 46, 3-(5-((5-chloro-2-((1-(cyclopropylmethyl)-1H-pyrazol-4-yl)amino)pyrimidin-4-yl)amino)hexahydrocyclopenta[c]pyrrol-2(1H)-yl)-3-oxopropanenitrile]
IC50 (JAK1 (h)): 0.5 nM
Clearance (CL) after iv dosing [1]: 68.8 mL/min/kg
F [1]: 26.0%
AUC(0-t) [1]: 244 ng·h/mL
half-life [1]: 28.8 min
Vd [1]: 1.53 L/kg
half-life at 5 μM [2, 8]: 39.3 min
CLint scaled at 5 μM ([2]; pH 7.4, Human liver microsomes): 44.2 mL/min/kg
half-life at 5 μM [3, 9]: 20.6 min
CLint scaled at 5 μM ([3]; pH 7.4, Rat liver microsomes): 121 mL/min/kg

SMILES: Cn1nc(C2CC2)cc1Nc1ncc(Cl)c(NC2CC3CN(C(=O)CC#N)CC3C2)n1 (centres unmarked) [Ex. 56, 3-(5-((5-chloro-2-((3-cyclopropyl-1-methyl-1H-pyrazol-5-yl)amino)pyrimidin-4-yl)amino)hexahydrocyclopenta[c]pyrrol-2(1H)-yl)-3-oxopropanenitrile]
IC50 (JAK1 (h)): 5 nM
Clearance (CL) after iv dosing [1]: 36.3 mL/min/kg
F [1]: 31.3%
AUC(0-t) [1]: 459 ng·h/mL
half-life [1]: 32.4 min
Vd [1]: 0.95 L/kg
half-life at 5 μM [2, 8]: 37.6 min
CLint scaled at 5 μM ([2]; pH 7.4, Human liver microsomes): 46.2 mL/min/kg
half-life at 5 μM [3, 9]: 41.4 min
CLint scaled at 5 μM ([3]; pH 7.4, Rat liver microsomes): 60 mL/min/kg

SMILES: Cc1cnc(Nc2cnn(C)c2)nc1NC1CN(C(=O)CC#N)CC12CCCC2 (centres unmarked) [Ex. 8, 3-(4-((5-methyl-2-((1-methyl-1H-pyrazol-4-yl)amino)pyrimidin-4-yl)amino)-2-azaspiro[4.4]nonan-2-yl)-3-oxopropanenitrile]
IC50 (JAK1 (h)): 11 nM
Clearance (CL) after iv dosing [1]: 61.7 mL/min/kg
F [1]: 17.5%
AUC(0-t) [1]: 272 ng·h/mL
half-life [1]: 52.8 min
Vd [1]: 2.85 L/kg

The next lines start with the values.

IC50 (JAK1 (h)): 2 nM
Clearance (CL) after iv dosing [1]: 53.2 mL/min/kg
F [1]: 48.1%
AUC(0-t) [1]: 315 ng·h/mL
half-life [1]: 24.6 min
Vd [1]: 1.31 L/kg
half-life at 5 μM [2, 8]: 62.8 min
CLint scaled at 5 μM ([2]; pH 7.4, Human liver microsomes): 27.7 mL/min/kg
half-life at 5 μM [3, 9]: 33.6 min
CLint scaled at 5 μM ([3]; pH 7.4, Rat liver microsomes): 74 mL/min/kg
SMILES: Cc1nn(C)cc1Nc1ncc(Cl)c(NC2CC3CN(C(=O)CC#N)CC3C2)n1 (centres unmarked) [Ex. 64, 3-(5-((5-chloro-2-((1,3-dimethyl-1H-pyrazol-4-yl)amino)pyrimidin-4-yl)amino)hexahydrocyclopenta[c]pyrrol-2(1H)-yl)-3-oxopropanenitrile]

IC50 (JAK1 (h)): 4 nM
Clearance (CL) after iv dosing [1]: 82.8 mL/min/kg
F [1]: 29.6%
AUC(0-t) [1]: 184 ng·h/mL
half-life [1]: 48.6 min
Vd [1]: 5.43 L/kg
half-life at 5 μM [2, 8]: 271 min
CLint scaled at 5 μM ([2]; pH 7.4, Human liver microsomes): 6.41 mL/min/kg
half-life at 5 μM [3, 9]: 81.1 min
CLint scaled at 5 μM ([3]; pH 7.4, Rat liver microsomes): 30.6 mL/min/kg
SMILES: Cc1cnc(Nc2cnn(C)c2)nc1NC1CC2CN(S(C)(=O)=O)CC2C1 (centres unmarked) [Ex. 62, 5-methyl-N^2-(1-methyl-1H-pyrazol-4-yl)-N^4-(2-(methylsulfonyl)octahydrocyclopenta[c]pyrrol-5-yl)pyrimidine-2,4-diamine]

IC50 (JAK1 (h)): 5 nM
half-life at 5 μM [2, 8]: 244 min
CLint scaled at 5 μM ([2]; pH 7.4, Human liver microsomes): 7.11 mL/min/kg
half-life at 5 μM [3, 9]: 240 min
CLint scaled at 5 μM ([3]; pH 7.4, Rat liver microsomes): 10.3 mL/min/kg
SMILES: Cc1cnc(Nc2cnn(C)c2)nc1NC1CC2CN(C(=O)CC#N)CC2C1 (centres unmarked) [Ex. 60, 3-(5-((5-methyl-2-((1-methyl-1H-pyrazol-4-yl)amino)pyrimidin-4-yl)amino)hexahydrocyclopenta[c]pyrrol-2(1H)-yl)-3-oxopropanenitrile]

IC50 (JAK1 (h)): 1 nM
Clearance (CL) after iv dosing [1]: 26.8 mL/min/kg
F [1]: 36.9%
AUC(0-t) [1]: 648 ng·h/mL
half-life [1]: 58.2 min
Vd [1]: 1.76 L/kg
SMILES: Cc1cnc(Nc2cnn(C)c2)nc1NC1CC2CN(c3ccc(C#N)cn3)CC2C1 (centres unmarked) [Ex. 59, 6-(5-((5-methyl-2-((1-methyl-1H-pyrazol-4-yl)amino)pyrimidin-4-yl)amino)hexahydrocyclopenta[c]pyrrol-2(1H)-yl)nicotinonitrile]
